Entries after “also recorded” stand apart in the source; their conditions may differ. Marks after values point to notes of the source that are not given here.

Series [1] is described as follows: Light treatment of soyasaponin extracts/solutions followed by HPLC/ELSD (peak area ratio to internal standard alpha-hederin). It is filed as physicochemical. As to conditions: 80% methanol; for D-I/D-I + S-I + S-VI / HPLC/ELSD component peak area to internal standard ratio, D-I / HPLC/ELSD component peak area to internal standard ratio, S-I / HPLC/ELSD component peak area to internal standard ratio, S-VI / HPLC/ELSD component peak area to internal standard ratio, total soyasaponins / HPLC/ELSD component peak area to internal standard ratio, unretained: 2 days fluorescent light. The method, then: HPLC and mass spectrometry. HP-20 MeOH samples (N=3) were prepared in 80% methanol at 8 mg/mL ( ? -hederin at 0.25 mg/mL) and syringe filtered (0.45 μm pore size, nylon membrane type, Chromatographic Specialties, Brockville, ON) into 0.25 mL glass autosampler vial inserts (Fisher no. 03-375-3A). The solutions were maintained at 15° C. before injection ([…] volume). The instrument consisted of an Alliance 2690 separations module (Waters Canada, Mississauga, ON) equipped with vacuum solvent degassing, a Waters 996 photodiode array detector (PDA) and a PL-EMD-960 evaporative light scattering detector (ELSD) (Polymer Laboratories, Amherst, Mass.) controlled by Waters Millennium software. Settings for the ELSD were attenuation=1, time constant=1 second, temperature=90°, PMT level=6 and airflow=4 liters/min. A reversed phase C-18 Symmetry™ column (3.0×150 mm, 5 μm particle size) purchased from Waters Canada and maintained at 30° C. was used. The mobile phase consisted of 0.05% trifluoroacetic acid (TFA) in water (solvent A) and 0.05% TFA in acetonitrile (solvent B), delivered at a flow rate of 0.4 mL/min. The gradient elution program consisted of 95% A and 5% B at time 0. After 10 min, the composition was 65% A and 35% B (linear, curve 6 gradient). At that time, the linear gradient progressed to 50% A and 50% B over 15 min and to 5% A-95% B over 5 min before reverting to 95% A and 5% B from 35 to 43 min. Mean values of the peak area ratios from single analysis of the three samples from each variety were reported. […]
To further investigate the possibility of S-VI undergoing visible-light-mediated phototransformation to D-I, a source of the unstable S-VI was required as well as other chromatographic fractions that might contain a photosensitizer. Starting with defatted Amit chickpea flour and with brief (minimal) exposure to visible laboratory light, we therefore isolated by the traditional hot methanol and Diaion HP-20 procedures (of Table 1) a dried HP-20 MeOH extract containing S-VI. The earlier-eluting aqueous methanol fractions (also isolated in powder form) were additionally obtained as a potential source of the photosensitizer, in addition to the chloroform extract from the defatting step. Three extraction and isolation experiments were completed (prep A, B and E). Aqueous methanol fractions (30% MeOH and <30% MeOH) containing non-saponin components (see example 7) were additionally available from an experiment on the same flour but these fractions had been isolated after exposure of the crude methanol extract to light (see Table 7).
Three concentrations of a 30% MeOH isolate were used for comparison (two concentrations were previously employed in Table 10). […] D-I to internal standard ratios were 3.3-4, equivalent to the ratios obtained in tests 3 and 4 with the aqueous methanol additions (see also trial 3 of Table 10).

A short description of series [2]: Solubility of photosensitizer in extraction solvents. It is filed as physicochemical.
Series [3] deals with calcium-dependent potassium channels (Homo sapiens, UniProt Q12791+Q16558). Conditions: cited from earlier work.
In series [4] the test system is stored product insect pests. As to conditions: D-I isolated from pea; cited from earlier work.
The mark [5] stands for this setting: potential photosensitizer 10 μM added to 100% MeOH fraction (3 mg) of Amit chickpea.
Where [6] appears, read: potential photosensitizer 50 μM added to 100% MeOH fraction (3 mg) of Amit chickpea.
[7] abbreviates: potential photosensitizer 100 μM added to 100% MeOH fraction (3 mg) of Amit chickpea.
The mark [8] stands for this setting: potential photosensitizer 50 μM added to 100% MeOH (2.98 mg) + 30% MeOH (4.47-4.58 mg) fractions.

Sequence of calcium-dependent potassium channels (Q12791 whole entry): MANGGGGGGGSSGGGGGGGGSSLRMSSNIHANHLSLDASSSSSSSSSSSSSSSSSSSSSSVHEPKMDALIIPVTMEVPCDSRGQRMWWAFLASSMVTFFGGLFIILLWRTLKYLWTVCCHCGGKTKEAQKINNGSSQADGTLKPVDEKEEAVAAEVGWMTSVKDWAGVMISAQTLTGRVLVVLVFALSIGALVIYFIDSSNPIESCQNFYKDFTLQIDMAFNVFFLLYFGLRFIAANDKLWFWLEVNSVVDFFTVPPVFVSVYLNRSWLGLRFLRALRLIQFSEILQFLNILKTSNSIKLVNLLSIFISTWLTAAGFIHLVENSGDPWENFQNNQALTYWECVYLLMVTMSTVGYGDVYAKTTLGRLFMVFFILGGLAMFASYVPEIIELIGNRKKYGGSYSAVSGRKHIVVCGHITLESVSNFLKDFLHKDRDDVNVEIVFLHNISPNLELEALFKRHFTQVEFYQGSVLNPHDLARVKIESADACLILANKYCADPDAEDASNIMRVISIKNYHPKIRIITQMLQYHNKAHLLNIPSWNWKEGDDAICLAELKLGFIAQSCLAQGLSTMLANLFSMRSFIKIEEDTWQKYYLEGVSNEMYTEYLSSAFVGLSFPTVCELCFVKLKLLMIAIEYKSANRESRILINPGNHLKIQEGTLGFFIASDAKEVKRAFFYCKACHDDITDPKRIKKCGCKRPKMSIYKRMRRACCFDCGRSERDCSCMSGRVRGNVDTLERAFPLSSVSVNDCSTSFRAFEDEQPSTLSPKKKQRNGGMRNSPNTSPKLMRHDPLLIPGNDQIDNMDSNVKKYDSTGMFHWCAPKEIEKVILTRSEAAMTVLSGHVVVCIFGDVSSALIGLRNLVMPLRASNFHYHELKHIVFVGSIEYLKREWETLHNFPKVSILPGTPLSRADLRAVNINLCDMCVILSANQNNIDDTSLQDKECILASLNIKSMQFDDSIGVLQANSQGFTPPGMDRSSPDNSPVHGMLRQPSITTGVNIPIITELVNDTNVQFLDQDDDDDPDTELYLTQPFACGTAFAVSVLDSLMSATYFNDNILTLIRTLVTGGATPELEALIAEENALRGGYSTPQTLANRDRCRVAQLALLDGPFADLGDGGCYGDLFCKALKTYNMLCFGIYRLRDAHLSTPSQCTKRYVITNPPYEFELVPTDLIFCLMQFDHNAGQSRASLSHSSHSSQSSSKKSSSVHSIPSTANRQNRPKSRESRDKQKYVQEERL
Sequence of calcium-dependent potassium channels (Q16558 whole entry): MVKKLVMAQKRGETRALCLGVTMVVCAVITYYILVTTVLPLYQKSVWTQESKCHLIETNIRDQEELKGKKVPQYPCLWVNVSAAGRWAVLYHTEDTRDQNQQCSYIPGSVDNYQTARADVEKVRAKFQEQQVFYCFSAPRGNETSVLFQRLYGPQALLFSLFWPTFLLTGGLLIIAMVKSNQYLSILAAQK

Regarding `Cc1cc2nc3c(=O)[nH]c(=O)nc-3n(C[C@H](O)[C@H](O)[C@H](O)COP(=O)(O)OP(=O)(O)OC[C@H]3O[C@@H](n4cnc5c(N)ncnc54)[C@H](O)[C@@H]3O)c2cc1C` [FAD], in series [1] (setting [5]), the “D-I/D-I + S-I + S-VI” value was 0.3; the “HPLC/ELSD component peak area to internal standard ratio, D-I” value worked out at 3.3; the “HPLC/ELSD component peak area to internal standard ratio, S-I” value came out at 6.8; the “HPLC/ELSD component peak area to internal standard ratio, S-VI” value is listed as less than 0.003. In series [1] (setting [5]), the “HPLC/ELSD component peak area to internal standard ratio, total soyasaponins” value was 10.1 and the “HPLC/ELSD component peak area to internal standard ratio, unretained” value came out at 5.1. For the same compound, in series [1] (setting [6]), the “D-I/D-I + S-I + S-VI” value turned out to be 0.4; the “HPLC/ELSD component peak area to internal standard ratio, D-I” value came to 3.0; the “HPLC/ELSD component peak area to internal standard ratio, S-I” value stood at 5.5; the “HPLC/ELSD component peak area to internal standard ratio, S-VI” value is given as less than 0.003. For the same compound, in series [1] (setting [6]), the “HPLC/ELSD component peak area to internal standard ratio, total soyasaponins” value is reported as 8.6 and the “HPLC/ELSD component peak area to internal standard ratio, unretained” value is listed as 5.6. For the same compound, in series [1] (setting [7]), the “D-I/D-I + S-I + S-VI” value worked out at 0.4; the “HPLC/ELSD component peak area to internal standard ratio, D-I” value was found to be 2.8; the “HPLC/ELSD component peak area to internal standard ratio, S-I” value is listed as 4.0; the “HPLC/ELSD component peak area to internal standard ratio, S-VI” value is less than 0.003. Moreover, in series [1] (setting [7]), the “HPLC/ELSD component peak area to internal standard ratio, total soyasaponins” value stood at 6.7 and the “HPLC/ELSD component peak area to internal standard ratio, unretained” value came to 6.9.

Regarding `Cc1cc2nc3c(=O)[nH]c(=O)nc-3n(C[C@H](O)[C@H](O)[C@H](O)CO)c2cc1C` [riboflavin], the “solubility in 80% methanol” value in series [2] (80% methanol) is recorded as “soluble”. In addition, the solubility in chloroform entry in series [2] (chloroform) is listed as “sparingly soluble”.

Turning to `Cc1cc2nc3c(=O)[nH]c(=O)nc-3n(C[C@H](O)[C@H](O)[C@H](O)COP(=O)(O)O)c2cc1C` [FMN], in series [1] (setting [5]), the “D-I/D-I + S-I + S-VI” value turned out to be 0.3; the “HPLC/ELSD component peak area to internal standard ratio, D-I” value stood at 3.3; the “HPLC/ELSD component peak area to internal standard ratio, S-I” value stood at 6.5; the “HPLC/ELSD component peak area to internal standard ratio, S-VI” value was less than 0.003. Besides, in series [1] (setting [5]), the “HPLC/ELSD component peak area to internal standard ratio, total soyasaponins” value was found to be 9.9 and the “HPLC/ELSD component peak area to internal standard ratio, unretained” value amounted to 4.8. In addition, in series [1] (setting [6]), the “D-I/D-I + S-I + S-VI” value is listed as 0.4; the “HPLC/ELSD component peak area to internal standard ratio, D-I” value was 2.9; the “HPLC/ELSD component peak area to internal standard ratio, S-I” value is 4.5; the “HPLC/ELSD component peak area to internal standard ratio, S-VI” value was less than 0.003. For the same compound, in series [1] (setting [6]), the “HPLC/ELSD component peak area to internal standard ratio, total soyasaponins” value turned out to be 7.4 and the “HPLC/ELSD component peak area to internal standard ratio, unretained” value came to 5.1. For the same compound, in series [1] (setting [7]), the “D-I/D-I + S-I + S-VI” value is given as 0.5; the “HPLC/ELSD component peak area to internal standard ratio, D-I” value amounted to 1.8; the “HPLC/ELSD component peak area to internal standard ratio, S-I” value is 0.3^f; the “HPLC/ELSD component peak area to internal standard ratio, S-VI” value is reported as less than 0.003. For the same compound, in series [1] (setting [7]), the “HPLC/ELSD component peak area to internal standard ratio, total soyasaponins” value is on record as 2.1 and the “HPLC/ELSD component peak area to internal standard ratio, unretained” value was found to be 6.5.

Consider `CC1=C(O)C(=O)C[C@H](O[C@@H]2CC(C)(C)C[C@H]3C4=CC[C@@H]5[C@@]6(C)CC[C@H](O[C@@H]7O[C@H](C(=O)O)[C@@H](O)[C@H](O)[C@H]7O[C@@H]7O[C@H](CO)[C@H](O)[C@H](O)[C@H]7O[C@@H]7O[C@@H](C)[C@H](O)[C@@H](O)[C@H]7O)[C@](C)(CO)[C@@H]6CC[C@@]5(C)[C@]4(C)CC[C@@]23C)O1` [S-VI, soyasaponin VI], for which the “stability to fluorescent light” value in series [1] (laboratory fluorescent light levels, room temperature, a few days) is given as “labile”.

For dehydrosoyasaponin I [D-I], the “activity on calcium-dependent (calcium-activated) potassium channels” value in series [3] (D-I isolated from leaves of Desmodium adscendens) is given as “high-affinity activator; also recorded: potent calcium-activated potassium channel opener”. In addition, the “potency as a potassium channel opener relative to S-I” value in series [3] (compared with S-I) is listed as 60 fold. Also, the “insecticidal and antifeedant properties” value in series [4] was “insecticidal and antifeedant properties”.

As to `COc1c2ccoc2cc2oc(=O)ccc12` [bergapten], in series [1] (setting [5]), the “D-I/D-I + S-I + S-VI” value turned out to be 0.1; the “HPLC/ELSD component peak area to internal standard ratio, D-I” value is reported as 1.6; the “HPLC/ELSD component peak area to internal standard ratio, S-I” value came out at 8.2; the “HPLC/ELSD component peak area to internal standard ratio, S-VI” value is given as 1.2. Besides, in series [1] (setting [5]), the “HPLC/ELSD component peak area to internal standard ratio, total soyasaponins” value is reported as 11.0 and the “HPLC/ELSD component peak area to internal standard ratio, unretained” value worked out at 4.8. In series [1] (setting [8]), the “D-I/D-I + S-I + S-VI” value was 0.3; the “HPLC/ELSD component peak area to internal standard ratio, D-I” value is recorded as 3.6; the “HPLC/ELSD component peak area to internal standard ratio, S-I” value worked out at 7.4; the “HPLC/ELSD component peak area to internal standard ratio, S-VI” value is less than 0.003. For the same compound, in series [1] (setting [8]), the “HPLC/ELSD component peak area to internal standard ratio, total soyasaponins” value is on record as 11.0 and the “HPLC/ELSD component peak area to internal standard ratio, unretained” value turned out to be 70.7. Also, in series [1] (setting [6]), the “D-I/D-I + S-I + S-VI” value is 0.1; the “HPLC/ELSD component peak area to internal standard ratio, D-I” value is reported as 1.2; the “HPLC/ELSD component peak area to internal standard ratio, S-I” value came out at 6.0; the “HPLC/ELSD component peak area to internal standard ratio, S-VI” value was found to be 1.2. Further, in series [1] (setting [6]), the “HPLC/ELSD component peak area to internal standard ratio, total soyasaponins” value is listed as 8.4 and the “HPLC/ELSD component peak area to internal standard ratio, unretained” value was found to be 3.8. In series [1] (setting [7]), the “D-I/D-I + S-I + S-VI” value is 0.2; the “HPLC/ELSD component peak area to internal standard ratio, D-I” value came to 1.7; the “HPLC/ELSD component peak area to internal standard ratio, S-I” value is on record as 8.0; the “HPLC/ELSD component peak area to internal standard ratio, S-VI” value came out at 1.4. Moreover, in series [1] (setting [7]), the “HPLC/ELSD component peak area to internal standard ratio, total soyasaponins” value is recorded as 11.1 and the “HPLC/ELSD component peak area to internal standard ratio, unretained” value is given as 4.4.

The values are drawn from patent US8247541B2, “Plant compositions enriched in dehydrosoyasaponin I (D-I) and methods of producing such compositions” (Her Majesty the Queen in right of Canada, as represented by …, priority 2007, dated 2012).
